For one test, the system named is rice blast fungi. The format is in vivo, Pyricularia grisea.
Conditions: not given
On to `Cl.Cn1c(CC(=O)Nc2ccccc2F)csc1=Nc1cccc(Cl)c1` [Compound 90, 2-(3-chlorophenylimino)-3-methyl-4-[N-(2-fluoro)phenylcarbamoylmethyl]-1,3-thiazol-4-ine hydrochloride], for which the “Inhibiting Ratio (%) (at 250 ppm)” value came out at 91%.
Still for that read-out and setting: for `Br.Cn1c(CC(=O)Nc2ccccc2)csc1=Nc1cccc(C(F)(F)F)c1` [Compound 1, 2-(3-trifluoromethylphenylimino)-3-methyl-4-(N-phenylcarbamoylmethyl)-1,3-thiazol-4-ine hydrobromide] the value was 75%; for `Br.Cc1ccc(NC(=O)Cc2csc(=Nc3ccc([N+](=O)[O-])cc3)n2C)cc1` [Compound 16, 2-(4-nitrophenylimino)-3-methyl-4-[N-(4-methylphenyl)carbamoylmethyl]-1,3-thiazol-4-ine hydrobromide], 100%.
For `Cc1ccc(NC(=O)Cc2csc(=Nc3ccc(F)c(Cl)c3)n2C)cc1Cl.Cl` [Compound 238, 2-(3-chloro-4-fluorophenylimino)-3-methyl-4-[N-(3-chloro-4-methylphenyl)carbamoylmethyl]-1,3-thiazol-4-ine hydrochloride], the “Inhibiting Ratio (%) (at 250 ppm)” value is on record as 93%.
Take `Cl.Cn1c(CC(=O)Nc2ccc(Cl)cc2)csc1=Nc1ccc(F)c(Cl)c1` [Compound 155, 2-(3-chloro-4-fluorophenylimino)-3-methyl-4-[N-(4-chlorophenyl)carbamoylmethyl]-1,3-thiazol-4-ine hydrochloride]: the “Inhibiting Ratio (%) (at 250 ppm)” value is reported as 96%.
On the same count and under the same terms, the figure for `Cc1ccc(NC(=O)Cc2csc(=Nc3ccc(F)cc3F)n2C)cc1` [Compound 332, 2-(2,4-difluorophenylimino)-3-methyl-4-[N-(4-methylphenyl)carbamoylmethyl]-1,3-thiazol-4-ine] is 100%.
Turning to `Cl.Cn1c(CC(=O)Nc2ccc(Cl)cc2)csc1=Nc1cccc(Br)c1` [Compound 156, 2-(3-bromophenylimino)-3-methyl-4-[N-(4-chlorophenyl)carbamoylmethyl]-1,3-thiazol-4-ine hydrochloride], the “Inhibiting Ratio (%) (at 250 ppm)” value was 96%.
Regarding `Br.Cc1ccc(NC(=O)Cc2csc(=Nc3cccc(C(F)(F)F)c3)n2C)cc1` [Compound 6, 2-(3-trifluoromethylphenylimino)-3-methyl-4-[N-(4-methylphenyl)carbamoylmethyl]-1,3-thiazol-4-ine hydrobromide], the “Inhibiting Ratio (%) (at 250 ppm)” value is 99%.
Turning to `COc1ccc(NC(=O)Cc2csc(=Nc3cc(Cl)cc(Cl)c3)n2C)cc1.Cl` [Compound 102, 2-(3,5-dichlorophenylimino)-3-methyl-4-[N-(4-methoxyphenyl)carbamoylmethyl]-1,3-thiazol-4-ine hydrochloride], the “Inhibiting Ratio (%) (at 250 ppm)” value is 93%.
`Br.COc1ccccc1N=c1scc(CC(=O)Nc2ccc(C)cc2)n1C` [Compound 28, 2-(2-methoxyphenylimino)-3-methyl-4-[N-(4-methylphenyl)carbamoylmethyl]-1,3-thiazol-4-ine hydrobromide]: the “Inhibiting Ratio (%) (at 250 ppm)” value is given as 100%.
For the molecule `Br.Cc1ccc(NC(=O)Cc2csc(=Nc3cccc([N+](=O)[O-])c3)n2C)cc1` [Compound 15, 2-(3-nitrophenylimino)-3-methyl-4-[N-(4-methylphenyl)carbamoylmethyl]-1,3-thiazol-4-ine hydrobromide], the “Inhibiting Ratio (%) (at 250 ppm)” value is given as 91%.
As to `COc1ccc(NC(=O)Cc2csc(=Nc3ccc(C#N)cc3)n2C)cc1` [Compound 330, 2-(4-cyanophenylimino)-3-methyl-4-[N-(4-methoxyphenyl)carbamoylmethyl]-1,3-thiazol-4-ine], the “Inhibiting Ratio (%) (at 250 ppm)” value turned out to be 100%.
As to `Br.Cc1cc(Cl)ccc1N=c1scc(CC(=O)Nc2ccccc2)n1C` [Compound 25, 2-(4-chloro-2-methylphenylimino)-3-methyl-4-(N-phenylcarbamoylmethyl)-1,3-thiazol-4-ine hydrobromide], the “Inhibiting Ratio (%) (at 250 ppm)” value is listed as 100%.
For `Br.Cc1ccc(Cl)cc1N=c1scc(CC(=O)Nc2ccccc2)n1C` [Compound 24, 2-(5-chloro-2-methylphenylimino)-3-methyl-4-(N-phenylcarbamoymethyl)-1,3-thiazol-4-ine hydrobromide], the “Inhibiting Ratio (%) (at 250 ppm)” value came to 97%.
On to `Br.CCCCc1ccc(N=c2scc(CC(=O)Nc3ccc(C)cc3)n2C)cc1` [Compound 30, 2-[4-(n-butyl)phenylimino]-3-methyl-4-[N-(4-methylphenyl)carbamoylmethyl]-1,3-thiazol-4-ine hydrobromide], for which the “Inhibiting Ratio (%) (at 250 ppm)” value is 100%.
The same measure, in the same setting: for `Cc1ccc(N=c2scc(CC(=O)Nc3ccc(Cl)cc3)n2C)c(C)c1.Cl` [Compound 154, 2-(2,4-dimethylphenylimino)-3-methyl-4-(N-(4-chlorophenyl)carbamoylmethyl)-1,3-thiazol-4-ine hydrochloride] the value was 93%; for `Br.Cn1c(CC(=O)Nc2cccc(Cl)c2)csc1=Nc1cccc([N+](=O)[O-])c1` [Compound 18, 2-(3-nitrophenylimino)-3-methyl-4-[N-(3-chlorophenyl)carbamoylmethyl]-1,3-thiazol-4-ine hydrobromide], 93%.
Turning to `Br.Cn1c(CC(=O)Nc2ccccc2)csc1=Nc1ccc(Cl)c(Cl)c1` [Compound 325, 2-(3,4-dichlorophenylimino)-3-methyl-4-N-phenylcarbamoylmethyl-1,3-thiazol-4-ine hydrobromide], the “Inhibiting Ratio (%) (at 250 ppm)” value is listed as 97%.
Regarding `Br.Cc1ccc(F)c(N=c2scc(CC(=O)Nc3ccccc3)n2C)c1` [Compound 44, 2-(2-fluoro-5-methylphenylimino)-3-methyl-4-(N-phenylcarbamoylmethyl)-1,3-thiazol-4-ine hydrobromide], the “Inhibiting Ratio (%) (at 250 ppm)” value was 95%.
Still for that read-out and setting: the figure for `Br.Cn1c(CC(=O)Nc2ccc(Cl)cc2)csc1=Nc1ccc(F)cc1` [Compound 316, 2-(4-fluorophenylimino)-3-methyl-4-[N-(4-chlorophenyl)carbamoylmethyl]-1,3-thiazol-4-ine hydrobromide] is 100%.
As to `Br.Cc1ccc(NC(=O)Cc2csc(=Nc3ccc(C#N)cc3)n2C)cc1` [Compound 46], the “Inhibiting Ratio (%) (at 250 ppm)” value amounted to 100%.
For `Cl.Cn1c(CC(=O)Nc2ccc(Cl)cc2)csc1=Nc1ccccc1F` [Compound 160, 2-(2-fluorophenylimino)-3-methyl-4-[N-(4-chlorophenyl)carbamoylmethyl]-1,3-thiazol-4-ine hydrochloride], the “Inhibiting Ratio (%) (at 250 ppm)” value is recorded as 88%.
For the molecule `CCCCc1ccc(N=c2scc(CC(=O)Nc3ccc(Cl)cc3)n2C)cc1.Cl` [Compound 124, 2-[4-(n-butyl)phenylimino]-3-methyl-4-[N-(4-chlorophenyl)carbamoylmethyl]-1,3-thiazol-4-ine hydrochloride], the “Inhibiting Ratio (%) (at 250 ppm)” value was 93%.
With `Cn1c(CC(=O)Nc2ccccc2)csc1=Nc1ccc(F)cc1F` [Compound 331, 2-(2,4-difluorophenylimino)-3-methyl-4-[N-phenylcarbamoylmethyl]-1,3-thiazol-4-ine], the “Inhibiting Ratio (%) (at 250 ppm)” value is 96%.
With `Cl.Cn1c(CC(=O)Nc2ccc(Cl)cc2)csc1=Nc1ccc(F)cc1F` [Compound 159, 2-(2,4-difluorophenylimino)-3-methyl-4-[N-(4-chlorophenyl)carbamoylmethyl]-1,3thiazol-4-ine hydrochloride], the “Inhibiting Ratio (%) (at 250 ppm)” value is 92%.
`Br.COc1ccc(NC(=O)Cc2csc(=Nc3ccc(Br)cc3)n2C)cc1` [Compound 318, 2-(4-bromophenylimino)-3-methyl-4-[N-(4-methoxyphenyl)carbamoylmethyl]-1,3-thiazol-4-ine hydrobromide]: the “Inhibiting Ratio (%) (at 250 ppm)” value is 100%.
For the molecule `Br.Cn1c(CC(=O)Nc2cccc(Cl)c2)csc1=Nc1ccc(F)cc1F` [Compound 68, 2-(2,4-difluorophenylimino)-3-methyl-4-[N-(3-chlorophenyl)carbamoylmethyl]-1,3-thiazol-4-ine hydrobromide], the “Inhibiting Ratio (%) (at 250 ppm)” value is recorded as 95%.
Still for that read-out and setting: the figure for `COc1ccc(C)cc1N=c1scc(CC(=O)Nc2ccc(C)c(Cl)c2)n1C.Cl` [Compound 239, 2-(2-methoxy-5-methylphenylimino)-3-methyl-4-[N-(3-chloro-4-methylphenyl)carbamoylmethyl]-1,3-thiazol-4-ine hydrochloride] is 92%; for `Cl.Cn1c(CC(=O)Nc2ccc(Br)cc2)csc1=Nc1ccc(F)cc1Cl` [Compound 140, 2-(2-chloro-4-fluorophenylimino)-3-methyl-4-[N-(4-bromophenyl)carbamoylmethyl]-1,3-thiazol-4-ine hydrochloride] it is 99%; for `Br.COc1ccc(N=c2scc(CC(=O)Nc3ccc(OC)cc3)n2C)cc1` [Compound 307, 2-(4-methoxyphenylimino)-3-methyl-4-[N-(4-methoxyphenyl)carbamoylmethyl]-1,3-thiazol-4-ine hydrobromide] it is 100%.
As to `Cc1ccc(NC(=O)Cc2csc(=Nc3cccc(F)c3)n2C)cc1Cl.Cl` [Compound 236, 2-(3-fluorophenylimino)-3-methyl-4-[N-(3-chloro-4-methylphenyl)carbamoylmethyl]-1,3-thiazol-4-ine hydrochloride], the “Inhibiting Ratio (%) (at 250 ppm)” value is listed as 97%.
`Br.CC(C)=CCOc1cc(N=c2scc(CC(=O)Nc3ccccc3)n2C)c(F)cc1Cl` [Compound 70, 2-(4-chloro-2-fluoro-5-(3,3,-dimethylallyloxy)phenylimino)-3-methyl-4-(N-phenylcarbamoylmethyl)-1,3-thiazol-4-ine hydrobromide]: the “Inhibiting Ratio (%) (at 250 ppm)” value was 96%.
Take “2-(2,4-dichloromethylphenylimino)-3-methyl-4-[N-(3-chlorophenyl)carbamoylmethyl]-1,3-thiazol-4-ine hydrobromide [Compound 60]”: the “Inhibiting Ratio (%) (at 250 ppm)” value was determined as 100%.

The test is the same for the next values; noted with them: hydrobromide.
As to `Br.Cc1cc(Cl)ccc1N=c1scc(CC(=O)Nc2cccc(Cl)c2)n1C` [Compound 61, 2-(4-chloro-2-methylphenylimino)-3-methyl-4-[N-(3-chlorophenyl)carbamoylmethyl]-1,3-thiazol-4-ine hydrobromide], the “Inhibiting Ratio (%) (at 250 ppm)” value came to 100%.

These data come from patent US6921770B2 (priority 2000, dated 2005).
